{"source": "patent US9446039B2", "about": "“Aminoheteroaryl compounds as MTH1 inhibitors” (CEMM—FORSCHUNGSZENTRUM FÜR MOLEKULARE MEDIZIN GMBH, priority 2012, dated 2016)", "assay_type_in_all_cases": "binding", "key": {"[1]": {"biological_target": "T1, SW480 colon carcinoma cells lysate proteins (Homo sapiens, UniProt P11586)", "T1 sequence (P11586 1-935)": "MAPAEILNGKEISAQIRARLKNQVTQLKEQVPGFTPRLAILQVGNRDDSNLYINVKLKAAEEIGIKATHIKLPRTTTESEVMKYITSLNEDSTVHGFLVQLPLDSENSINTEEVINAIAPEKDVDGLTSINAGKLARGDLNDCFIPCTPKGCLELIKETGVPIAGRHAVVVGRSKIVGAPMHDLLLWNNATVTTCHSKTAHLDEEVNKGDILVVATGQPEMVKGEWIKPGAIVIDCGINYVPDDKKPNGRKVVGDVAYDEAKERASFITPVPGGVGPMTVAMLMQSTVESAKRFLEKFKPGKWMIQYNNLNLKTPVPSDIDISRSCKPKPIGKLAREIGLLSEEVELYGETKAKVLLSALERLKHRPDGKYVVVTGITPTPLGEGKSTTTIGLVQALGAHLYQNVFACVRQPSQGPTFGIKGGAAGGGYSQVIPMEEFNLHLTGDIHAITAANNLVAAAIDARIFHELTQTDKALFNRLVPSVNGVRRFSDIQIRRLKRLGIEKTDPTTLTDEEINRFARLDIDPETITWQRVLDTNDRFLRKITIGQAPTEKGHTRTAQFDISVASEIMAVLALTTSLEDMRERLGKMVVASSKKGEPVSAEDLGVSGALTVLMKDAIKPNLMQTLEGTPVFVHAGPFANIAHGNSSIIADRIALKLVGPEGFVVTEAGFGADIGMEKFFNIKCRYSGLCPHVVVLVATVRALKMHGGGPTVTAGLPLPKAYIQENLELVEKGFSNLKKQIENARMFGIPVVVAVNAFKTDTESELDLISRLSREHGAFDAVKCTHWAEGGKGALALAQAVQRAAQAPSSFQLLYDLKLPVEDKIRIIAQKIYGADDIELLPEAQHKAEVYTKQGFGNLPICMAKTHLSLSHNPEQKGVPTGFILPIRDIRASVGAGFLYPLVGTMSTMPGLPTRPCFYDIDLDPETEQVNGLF", "conditions": "PreyGene MTHFD1"}, "[2]": {"biological_target": "T2, SW480 colon carcinoma cells lysate proteins (Homo sapiens, UniProt P30041)", "T2 sequence (P30041 1-224)": "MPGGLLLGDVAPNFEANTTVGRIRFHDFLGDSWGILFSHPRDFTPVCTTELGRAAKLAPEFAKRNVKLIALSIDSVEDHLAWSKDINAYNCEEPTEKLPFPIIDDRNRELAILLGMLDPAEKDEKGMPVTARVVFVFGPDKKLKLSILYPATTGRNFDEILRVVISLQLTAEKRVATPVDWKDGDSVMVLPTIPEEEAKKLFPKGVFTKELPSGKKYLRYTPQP", "conditions": "PreyGene PRDX6"}, "[3]": {"biological_target": "SW480 colon carcinoma cells lysate proteins (Homo sapiens, UniProt P63244)", "conditions": "PreyGene GNB2L1; SW480 cells"}, "[4]": {"biological_target": "T3, SW480 colon carcinoma cells lysate proteins (Homo sapiens, UniProt Q15758)", "T3 sequence (Q15758 1-541)": "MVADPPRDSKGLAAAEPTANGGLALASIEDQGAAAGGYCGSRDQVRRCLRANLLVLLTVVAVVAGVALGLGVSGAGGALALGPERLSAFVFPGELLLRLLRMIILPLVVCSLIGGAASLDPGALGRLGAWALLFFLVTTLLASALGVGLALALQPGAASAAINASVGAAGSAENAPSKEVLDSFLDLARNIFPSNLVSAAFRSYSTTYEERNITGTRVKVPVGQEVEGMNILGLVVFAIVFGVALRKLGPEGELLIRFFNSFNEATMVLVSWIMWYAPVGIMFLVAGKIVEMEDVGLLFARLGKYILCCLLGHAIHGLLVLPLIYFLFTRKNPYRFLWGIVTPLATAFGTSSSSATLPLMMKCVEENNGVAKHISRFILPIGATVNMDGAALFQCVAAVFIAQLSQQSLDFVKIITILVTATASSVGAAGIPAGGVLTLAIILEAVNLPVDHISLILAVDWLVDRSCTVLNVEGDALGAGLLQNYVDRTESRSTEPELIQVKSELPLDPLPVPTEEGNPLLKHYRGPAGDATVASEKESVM", "conditions": "PreyGene SLC1A5"}, "[5]": {"biological_target": "SW480 colon carcinoma cells lysate proteins (Homo sapiens, UniProt Q99623)", "sequence (Q99623 whole entry)": "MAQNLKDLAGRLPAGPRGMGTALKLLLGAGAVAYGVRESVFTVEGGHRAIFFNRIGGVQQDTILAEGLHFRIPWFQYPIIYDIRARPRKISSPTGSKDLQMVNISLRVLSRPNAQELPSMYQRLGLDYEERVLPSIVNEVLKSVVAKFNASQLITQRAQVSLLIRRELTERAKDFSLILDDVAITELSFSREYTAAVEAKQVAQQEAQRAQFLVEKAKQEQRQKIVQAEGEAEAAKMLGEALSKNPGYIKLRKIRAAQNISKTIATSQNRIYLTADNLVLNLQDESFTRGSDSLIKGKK", "conditions": "PreyGene PHB2; SW480 cells"}, "[6]": {"biological_target": "T4, SW480 colon carcinoma cells lysate proteins (Homo sapiens, UniProt Q9Y617)", "T4 sequence (Q9Y617 1-370)": "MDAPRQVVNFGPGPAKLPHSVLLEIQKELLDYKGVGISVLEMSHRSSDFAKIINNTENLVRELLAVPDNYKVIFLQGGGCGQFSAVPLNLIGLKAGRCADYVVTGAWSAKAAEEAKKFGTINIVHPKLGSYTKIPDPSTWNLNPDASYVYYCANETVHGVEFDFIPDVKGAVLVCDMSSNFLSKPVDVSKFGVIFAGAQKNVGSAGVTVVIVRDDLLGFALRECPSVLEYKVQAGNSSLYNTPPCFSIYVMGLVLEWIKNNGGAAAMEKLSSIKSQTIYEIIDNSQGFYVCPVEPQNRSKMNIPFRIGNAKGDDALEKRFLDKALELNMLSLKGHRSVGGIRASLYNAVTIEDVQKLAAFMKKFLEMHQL", "conditions": "PreyGene PSAT1"}}}
{"smiles": "C[C@H](Oc1cc(-c2cnn(C3CCNCC3)c2)cnc1N)c1c(Cl)ccc(F)c1Cl", "note": "[(5)-crizotinib]", "values": [{"measurement": "AvgP", "setting": "[1]", "value": 0.2666}, {"measurement": "SC.Exp. 1-1", "setting": "[1]", "value": 2}, {"measurement": "SC.Exp. 1-2", "setting": "[1]", "value": 2}, {"measurement": "SC.Exp. 2-1", "setting": "[1]", "value": 0}, {"measurement": "SC.Exp. 2-2", "setting": "[1]", "value": 0}, {"measurement": "Sum (SC.Exp.)", "setting": "[1]", "value": 4}, {"measurement": "AvgP", "setting": "[2]", "value": 0.1992}, {"measurement": "SC.Exp. 1-1", "setting": "[2]", "value": 8}, {"measurement": "SC.Exp. 1-2", "setting": "[2]", "value": 8}, {"measurement": "SC.Exp. 2-1", "setting": "[2]", "value": 0}, {"measurement": "SC.Exp. 2-2", "setting": "[2]", "value": 0}, {"measurement": "Sum (SC.Exp.)", "setting": "[2]", "value": 16}, {"measurement": "AvgP", "setting": "[3]", "value": 0}, {"measurement": "SC.Exp. 1-1", "setting": "[3]", "value": 12}, {"measurement": "SC.Exp. 1-2", "setting": "[3]", "value": 13}, {"measurement": "SC.Exp. 2-1", "setting": "[3]", "value": 9}, {"measurement": "SC.Exp. 2-2", "setting": "[3]", "value": 11}, {"measurement": "SC.Exp. Sum", "setting": "[3]", "value": 45}, {"measurement": "AvgP", "setting": "[4]", "value": 0.227}, {"measurement": "SC.Exp. 1-1", "setting": "[4]", "value": 1}, {"measurement": "SC.Exp. 1-2", "setting": "[4]", "value": 0}, {"measurement": "SC.Exp. 2-1", "setting": "[4]", "value": 3}, {"measurement": "SC.Exp. 2-2", "setting": "[4]", "value": 2}, {"measurement": "Sum (SC.Exp.)", "setting": "[4]", "value": 6}, {"measurement": "AvgP", "setting": "[5]", "value": 0}, {"measurement": "SC.Exp. 1-1", "setting": "[5]", "value": 9}, {"measurement": "SC.Exp. 1-2", "setting": "[5]", "value": 8}, {"measurement": "SC.Exp. 2-1", "setting": "[5]", "value": 3}, {"measurement": "SC.Exp. 2-2", "setting": "[5]", "value": 5}, {"measurement": "SC.Exp. Sum", "setting": "[5]", "value": 25}, {"measurement": "AvgP", "setting": "[6]", "value": 0.3916}, {"measurement": "SC.Exp. 1-1", "setting": "[6]", "value": 3}, {"measurement": "SC.Exp. 1-2", "setting": "[6]", "value": 3}, {"measurement": "SC.Exp. 2-1", "setting": "[6]", "value": 0}, {"measurement": "SC.Exp. 2-2", "setting": "[6]", "value": 0}, {"measurement": "Sum (SC.Exp.)", "setting": "[6]", "value": 6}]}
